Results as given in patent publication US20250237650A1 (priority 2021, published 2025).

Assays:
[1] = molecular target: trimeric Env (Group M; Clade C); assay: BLI of HS to trimeric Env; design: species or system HIV-1; settings: read-out: estimated binding affinity
[2] = molecular target: Env (monomeric gp140; Clade CRF07_BC); assay: BLI of HS/HEP to monomeric Env; design: species or system HIV-1; settings: steady-state analysis of BLI data; read-out: Estimated binding affinity (KD)
[3] = tested on: variants of Env (trimeric gp140; Clade C, B, A); assay: BLI of HS to variants of trimeric Env; assay type: binding, HIV-1
SARS-CoV-2 spike [4] = tested on: SARS-CoV-2 spike
SARS-CoV-2 spike [5] = assay type: binding; settings: for Kd: pH 7.4

heparan sulfate [HS]
Kd [1]: 28 nM | Kd [2]: 142 nM | Binding affinity of HS to all the subtypes [3]: in the nanomolar range

heparan sulfate [HS15]
LFSA signal intensity of capture probes (SARS-CoV-2 spike [4]): highest signal intensity

chondroitin sulfate [CS25]
Kd (SARS-CoV-2 spike [5]): 17.9 nM

heparin [HEP27, reference compound]
LFSA signal intensity of capture probes (SARS-CoV-2 spike [4]): lower signal intensity

heparin [HEP15, reference compound]
Kd (SARS-CoV-2 spike [5]): 215 nM

heparin [reference compound]
HEP binding affinity to spike as ionic strength increased (SARS-CoV-2 spike [5]): dramatically decreased | Kd [2]: 209 nM
